≈ marks a conversion by molar mass, not a printed value.
Columns and labels:
Format in all cases: physicochemical
[1] = Approximate solubility of Compound 1 in various solvents (stepwise solvent addition); settings: thermodynamic from solid, read-out: Solubility [S, mg/mL]
Protocol: To determine approximate solubility of Compound 1, solvent was added in steps to the solid material (about 20 to 100 mg). The solubility values were rough approximations. Therefore, these values were used solely for the preliminary design of subsequent crystallization experiments.

[2] = Exact solubility of Compound 1 Form A in selected solvent systems (1 day suspension, HPLC); settings: for solubility at 1 day: thermodynamic from solid
Protocol: (§1) The exact solubilities of Compound 1 Form A in selected solvent systems were determined at 24° C. and 60° C. About 100 mg of Compound 1 Form A were suspended in 2.0 mL of solvent and stirred using a magnetic stirrer bar for 1 day at 24° C. or 60° C., followed by filter centrifugation at the corresponding temperature. The concentration of Compound 1 was then determined by HPLC.
as §1, with “solubilities of Form A” for “solubilities of Compound 1 Form A”, “Compound 1 were suspended” for “Compound 1 Form A were suspended”

[3] = Chemical stability when stirring suspension at 75° C. (Experiment No. 26); settings: 1-propanol/0.01 M NaOH aq 1:2 v/v; stirring at 75° C. overnight
Protocol: Experiment No. 26 tested seeding behavior at 75° C. at the 16 g scale as well as chemical stability when stirring suspensions at 75° C. for extended times.
16.02 g of Compound 1 were placed in a 300 mL glass reactor (diameter 70 mm) and 200 mL of 1-propanol/0.01 M NaOH aq 1:2 v/v were added at room temperature. The suspension was stirred using a two-bladed impeller (diameter 40 mm; 500 rpm) and heated to 90° C. in 30 minutes. After stirring at 90° C. for about 15 minutes (500 rpm) the solution formed was cooled to 75° C. with a cooling rate of 15K/hour and stirred at 75° C. for 10 minutes.
At 75° C. the solution was seeded with a suspension of 158 mg of crude Compound 1 in 5 mL of water. The weak suspension formed was stirred at 75° C. overnight followed by hot filtration (sintered glass funnel, porosity P4, diameter 65 mm; the suspension was easy to filter). The glass reactor was flushed with 20 mL of water and the washing suspension was also filtered. The filter cake was again washed with 20 mL of water and air dried for 20 minutes by drawing ambient air through the glass funnel.

## Cc1nc(N)c2c(C(N)=O)cn([C@@H]3O[C@H](CO)[C@@H](O)[C@H]3O)c2n1 [Compound 1, 4-amino-7-((2R,3R,4S,5R)-3,4-dihydroxy-5-(hydroxymethyl)tetrahydrofuran-2-yl)-2-methyl-7H-pyrrolo[2,3-d]pyrimidine-5-carboxamide]
[1]; aqueous buffer, NaOH aq 0.1M, 60° C.
  solubility: ~9 mg/mL (≈ 27.8 mM)
[1]; aqueous buffer, NaOH aq 0.1M, RT
  solubility: ~3 mg/mL (≈ 9.28 mM)
[1]; aqueous buffer, NaOH aq 0.5M, 60° C.
  solubility: ~38 mg/mL (≈ 118 mM)
[1]; aqueous buffer, NaOH aq 0.5M, RT
  solubility: ~16 mg/mL (≈ 49.5 mM)
[1]; aqueous buffer, NaOH aq 1M, 60° C.
  solubility: ~95 mg/mL (≈ 294 mM)
[1]; aqueous buffer, NaOH aq 1M, RT
  solubility: ~60 mg/mL (≈ 186 mM)
[1]; aqueous with cosolvent or surfactant or cyclodextrin, 1-Propanol/water 1:2 v/v, RT
  solubility: ~6 mg/mL (≈ 18.6 mM)
[1]; aqueous with cosolvent or surfactant or cyclodextrin, 1-Propanol/water 1:2 v/v, at 80° C.
  solubility: ~51 mg/mL (≈ 158 mM)
[1]; aqueous with cosolvent or surfactant or cyclodextrin, 1-Propanol/water 2:1 v/v, RT
  solubility: ~7 mg/mL (≈ 21.7 mM)
[1]; aqueous with cosolvent or surfactant or cyclodextrin, 2-Propanol/NaOH aq 0.1M 1:1 v/v, RT
  solubility: ~16 mg/mL (≈ 49.5 mM)
[1]; aqueous with cosolvent or surfactant or cyclodextrin, 2-Propanol/water 1:1 v/v, RT
  solubility: ~7 mg/mL (≈ 21.7 mM)
[1]; aqueous with cosolvent or surfactant or cyclodextrin, 2-Propanol/water 1:2 v/v, RT
  solubility: ~5 mg/mL (≈ 15.5 mM)
[1]; aqueous with cosolvent or surfactant or cyclodextrin, 2-Propanol/water 1:2 v/v, at 70° C.
  solubility: ~31 mg/mL (≈ 95.9 mM)
[1]; aqueous with cosolvent or surfactant or cyclodextrin, 2-Propanol/water 2:1 v/v, RT
  solubility: ~6 mg/mL (≈ 18.6 mM)
[1]; aqueous with cosolvent or surfactant or cyclodextrin, DMSO/NaOH aq 0.1M 1:1 v/v, RT
  solubility: ~20 mg/mL (≈ 61.9 mM)
[1]; aqueous with cosolvent or surfactant or cyclodextrin, DMSO/water 1:1 v/v, RT
  solubility: ~8 mg/mL (≈ 24.7 mM)
[1]; aqueous with cosolvent or surfactant or cyclodextrin, DMSO/water 1:1 v/v, at 80° C.
  solubility: ~45 mg/mL (≈ 139 mM)
[1]; aqueous with cosolvent or surfactant or cyclodextrin, DMSO/water 1:2 v/v, RT
  solubility: ~3 mg/mL (≈ 9.28 mM)
[1]; aqueous with cosolvent or surfactant or cyclodextrin, THF/water 1:1 v/v, RT
  solubility: ~22 mg/mL (≈ 68 mM)
[1]; aqueous with cosolvent or surfactant or cyclodextrin, THF/water 1:4 v/v, RT
  solubility: ~6 mg/mL (≈ 18.6 mM)
[1]; aqueous with cosolvent or surfactant or cyclodextrin, THF/water 4:1 v/v, RT
  solubility: ~15 mg/mL (≈ 46.4 mM)
[1]; organic solvent or mixture, DMSO, RT
  solubility: ~500 mg/mL (≈ 1550 mM)
[1]; organic solvent or mixture, Ethanol, RT
  solubility: 1.7 mg/mL (≈ 5.26 mM)
[1]; organic solvent or mixture, THF, RT
  solubility: < 1 mg/mL
[1]; Water, 60° C.
  solubility: ~3 mg/mL (≈ 9.28 mM)
[1]; Water, RT
  solubility: < 1.3 mg/mL
[2]; 0.1 M aqueous NaOH, aqueous buffer, NaOH aq 0.1M, 24° C.
  solubility at 1 day: 2.8 mg/mL (≈ 8.66 mM)
[2]; 0.1 M aqueous NaOH, aqueous buffer, NaOH aq 0.1M, 60° C.
  solubility at 1 day: 8 mg/mL (≈ 24.7 mM)
[2]; DMSO/0.01 M aqueous NaOH 1:2 v/v, aqueous with cosolvent or surfactant or cyclodextrin, DMSO/NaOH aq 0.01M 1:2 v/v, 24° C.
  solubility at 1 day: 4.8 mg/mL (≈ 14.8 mM)
[2]; DMSO/0.01 M aqueous NaOH 1:2 v/v, aqueous with cosolvent or surfactant or cyclodextrin, DMSO/NaOH aq 0.01M 1:2 v/v, 60° C.
  solubility at 1 day: 19.6 mg/mL (≈ 60.6 mM)
[2]; DMSO/0.1 M aqueous NaOH 1:2 v/v, aqueous with cosolvent or surfactant or cyclodextrin, DMSO/NaOH aq 0.1M 1:2 v/v, 24° C.
  solubility at 1 day: 12.5 mg/mL (≈ 38.7 mM)
[2]; NaOH aq 0.01M, 24° C.
  solubility: 0.81 mg/mL (≈ 2.51 mM)
[2]; aqueous with cosolvent or surfactant or cyclodextrin, 1-Propanol/NaOH aq 0.01M 1:3 v/v, 24° C.
  solubility at 1 day: 6.8 mg/mL (≈ 21 mM)
[2]; aqueous with cosolvent or surfactant or cyclodextrin, 1-Propanol/NaOH aq 0.01M 1:3 v/v, 60° C.
  solubility at 1 day: 25.9 mg/mL (≈ 80.1 mM)
[2]; aqueous with cosolvent or surfactant or cyclodextrin, 1-Propanol/NaOH aq 0.1M 1:3 v/v, 24° C.
  solubility at 1 day: 16.6 mg/mL (≈ 51.3 mM)
[2]; aqueous with cosolvent or surfactant or cyclodextrin, 1-Propanol/water 1:2 v/v, 60° C.
  solubility at 1 day: 30.9 mg/mL (≈ 95.6 mM)
[2]; aqueous with cosolvent or surfactant or cyclodextrin, 2-Propanol/NaOH aq 0.01M 1:3 v/v, 24° C.
  solubility at 1 day: 5.2 mg/mL (≈ 16.1 mM)
[2]; aqueous with cosolvent or surfactant or cyclodextrin, 2-Propanol/NaOH aq 0.01M 1:3 v/v, 60° C.
  solubility at 1 day: 16.9 mg/mL (≈ 52.3 mM)
[2]; aqueous with cosolvent or surfactant or cyclodextrin, 2-Propanol/NaOH aq 0.1M 1:3 v/v, 24° C.
  solubility at 1 day: 14.1 mg/mL (≈ 43.6 mM)
[2]; aqueous with cosolvent or surfactant or cyclodextrin, 2-Propanol/water 1:2 v/v, 60° C.
  solubility at 1 day: 26.6 mg/mL (≈ 82.3 mM)
[2]; aqueous with cosolvent or surfactant or cyclodextrin, DMSO/water 1:1 v/v, 60° C.
  solubility at 1 day: 18.7 mg/mL (≈ 57.8 mM)
[2]; aqueous with cosolvent or surfactant or cyclodextrin, Ethanol/NaOH aq 0.01M 1:3 v/v, 24° C.
  solubility at 1 day: 3.3 mg/mL (≈ 10.2 mM)
[2]; aqueous with cosolvent or surfactant or cyclodextrin, Ethanol/NaOH aq 0.01M 1:3 v/v, 60° C.
  solubility at 1 day: 15.3 mg/mL (≈ 47.3 mM)
[2]; aqueous with cosolvent or surfactant or cyclodextrin, Ethanol/NaOH aq 0.1M 1:3 v/v, 24° C.
  solubility at 1 day: 9 mg/mL (≈ 27.8 mM)
[3]
  chemical stability of suspension: chemically stable

From US11111264B2, “Morphic forms of 4-amino-7-(3,4-dihydroxy-5-(hydroxymethyl)tetrahydrofuran-2-yl)-2-methyl-7H-pyrrolo[2,3-d]pyrimidine-5-carboxamide and uses thereof” (Chimerix, Inc., priority 2017, dated 2021)
